Laboratory results reported in patent US11365192B2, “Pyridine compound substituted with azole” (TAISHO PHARMACEUTICAL CO., LTD., priority 2017, dated 2022).

Experiments:
human CYP4F2 = human CYP4F2 (Homo sapiens (Human), UniProt P78329); experiment: Inhibition test against 20-HETE producing enzyme CYP4F2 (luciferine derivative, luminescence); assay type: biochemical
Outline: (§1)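 E. coli membranes (100 μg/mL protein) expressing human enzyme, room temperature 60 min, luciferin-derivative luminescence; IC50 from % inhibition. CYP4F2: 50 mM KPO4 pH 7.4, 2.5 μM substrate, 1 mM NADPH. CYP4A11: 100 mM Tris-HCl pH 7.5, 60 μM substrate, NADP+/glucose 6-phosphate/G6PDH regenerating system, 3.3 mM MgCl2.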

human CYP4A11 = human CYP4A11 (Homo sapiens (Human), UniProt Q02928); experiment: Inhibition test against 20-HETE producing enzyme CYP4A11 (luciferine derivative, luminescence); assay type: biochemical
Outline: as §1

[1] = human CYP4F2, luciferine derivative, luminescence
[2] = human CYP4A11, luciferine derivative, luminescence
[3] = E. coli membrane fraction expressing human CYP4F2, 2.5 μM luciferine derivative, room temperature 60 minutes
[4] = E. coli membrane fraction expressing human CYP4A11, 60 μM luciferine derivative, room temperature 60 minutes

Chain of human CYP4A11 (Q02928 5-519): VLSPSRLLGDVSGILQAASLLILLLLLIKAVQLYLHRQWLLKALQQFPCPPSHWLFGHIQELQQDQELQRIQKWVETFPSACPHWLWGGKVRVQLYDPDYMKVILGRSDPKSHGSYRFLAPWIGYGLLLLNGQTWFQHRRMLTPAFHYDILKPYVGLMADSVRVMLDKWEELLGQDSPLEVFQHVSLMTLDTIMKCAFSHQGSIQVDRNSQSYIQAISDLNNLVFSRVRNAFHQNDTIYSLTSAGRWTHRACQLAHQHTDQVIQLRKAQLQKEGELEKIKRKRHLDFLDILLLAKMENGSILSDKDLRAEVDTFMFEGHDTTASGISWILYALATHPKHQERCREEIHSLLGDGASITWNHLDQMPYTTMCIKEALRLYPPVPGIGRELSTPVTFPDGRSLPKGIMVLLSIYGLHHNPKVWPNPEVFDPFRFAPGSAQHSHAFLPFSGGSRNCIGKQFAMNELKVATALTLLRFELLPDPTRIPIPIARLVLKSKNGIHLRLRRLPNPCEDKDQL
Chain of human CYP4F2 (P78329 5-520): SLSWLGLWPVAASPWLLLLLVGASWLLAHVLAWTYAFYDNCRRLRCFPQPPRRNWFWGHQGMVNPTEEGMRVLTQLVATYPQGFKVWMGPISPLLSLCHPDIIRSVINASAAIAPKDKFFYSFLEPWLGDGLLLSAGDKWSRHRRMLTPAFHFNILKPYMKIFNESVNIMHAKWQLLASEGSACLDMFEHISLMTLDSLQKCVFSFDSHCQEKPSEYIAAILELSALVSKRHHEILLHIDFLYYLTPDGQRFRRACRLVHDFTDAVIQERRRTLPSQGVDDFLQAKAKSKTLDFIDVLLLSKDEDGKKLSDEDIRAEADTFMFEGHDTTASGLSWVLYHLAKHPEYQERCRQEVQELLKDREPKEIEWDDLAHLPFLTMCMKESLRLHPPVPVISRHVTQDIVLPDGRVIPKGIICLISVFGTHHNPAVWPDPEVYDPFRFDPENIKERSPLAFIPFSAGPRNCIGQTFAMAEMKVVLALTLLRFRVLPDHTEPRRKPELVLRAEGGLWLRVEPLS

Row | Structure (SMILES) | IC50 (human CYP4F2; [1]) [nM] | IC50 (human CYP4A11; [2]) [nM] | IC50 (human CYP4F2; [3]) [nM] | IC50 (human CYP4A11; [4]) [nM]
1 | O=C(O)C1COc2cc(CCOc3ccc(-c4ccn[nH]4)nc3)ccc2C1 (centres unmarked) [Example 71-9] | 870 | 310 |  | 
2 | O=C(O)[C@@H]1CCc2cc(CCOc3ccc(-c4ccn[nH]4)nc3)ccc2O1 [Example 71-8-1] | 430 | 1000 |  | 
3 | CO[C@H](C)CNC(=O)CCc1cccc(COc2ccc(-c3ccn[nH]3)nc2)c1 [Example 43-12] | 40 | 76 |  | 
4 | O=C(O)C1CCc2ccc(COc3ccc(-c4[nH]ncc4Cl)nc3)cc2O1 (single isomer, unassigned) [Example 75-8] | 67 | 67 |  | 
5 | O=C(O)/C=C/c1cccc(COc2ccc(-c3ccn[nH]3)nc2)c1 [Example 22-1, (2E)-3-[3-[[[6-(1H-Pyrazol-5-yl)pyridin-3-yl]oxy]methyl]phenyl]-2-propenoic Acid] |  |  | 140 | 15
6 | O=C(O)CCCCCOc1ccc(-c2ccn[nH]2)nc1 [Example 1-47, 6-[[6-(1H-Pyrazol-5-yl)-3-pyridinyl]oxy]hexanoic Acid] |  |  | 14000 | 68
7 | O=C(O)c1cccc(S(=O)(=O)N2CCC[C@@H](COc3ccc(-c4ccn[nH]4)nc3)C2)c1 [Example 1-37] |  |  | 94 | 21
8 | CC(C)(C(=O)O)c1cccc(CCCOc2ccc(-c3ccn[nH]3)nc2)c1 [Example 32-2] |  |  | 1300 | 22
9 | CN(C)C(=O)Cc1cccc(COc2ccc(-c3ccn[nH]3)nc2)c1 [Example 42-5] |  |  | 260 | 200
10 | CC(C)(CCNS(=O)(=O)c1cccc(COc2ccc(-c3ccn[nH]3)nc2)c1)C(=O)O [Example 21-4] |  |  | 1500 | 25
11 | O=C(c1cccc(=O)[nH]1)N1CCC[C@@H](COc2ccc(-c3ccn[nH]3)nc2)C1 [Example 41-4] |  |  | 1500 | 710
12 | CC(C)(COc1cccc(COc2ccc(-c3ccn[nH]3)nc2)n1)C(=O)O [Example 75-6] | 1700 | 180 |  | 
13 | O=C(O)C1CC1c1cccc(COc2ccc(-c3ccn[nH]3)nc2)c1F (single isomer, unassigned) [Example 71-45, 2-[2-Fluoro-3-[[6-(1H-pyrazol-5-yl)pyridin-3-yl]oxymethyl]phenyl]cyclopropane-1-carboxylic Acid] | 210 | 15 |  | 
14 | Oc1cc(CCCOc2ccc(-c3ccn[nH]3)nc2)ccc1F [Example 11-3] |  |  | 7.3 | 270
15 | O=C(O)C1CCc2cc(CCOc3ccc(-c4ccn[nH]4)nc3)ccc2O1 (centres unmarked) [Example 71-7, 6-[2-[6-(1H-Pyrazol-5-yl)pyridin-3-yl]oxyethyl]-3,4-dihydro-2H-chromene-2-carboxylic Acid] | 550 | 82 |  | 
16 | O=C(O)CCCCCCCCCOc1ccc(-c2ccn[nH]2)nc1 [Example 1-52] |  |  | 41 | 44
17 | O=C(O)/C=C/c1ccc(CCOc2ccc(-c3ccn[nH]3)nc2)cc1F [Example 70-5] | 27 | 43 |  | 
18 | O=C(O)c1ccc2c(c1)C(CCOc1ccc(-c3ccn[nH]3)nc1)CCC2 (centres unmarked) [Example 5-2] |  |  | 1700 | 73
19 | CC(C)(O)CS(=O)(=O)c1cccc(COc2ccc(-c3ccn[nH]3)nc2)c1 [Example 36-1, 2-Methyl-1-[3-[[6-(1-H-pyrazol-5-yl)-3-pyridinyl]oxymethyl]phenyl] sulfonyl-2-propanol] |  |  | 93 | 82
20 | O=C(NCC1(C(=O)O)CC1)c1cccc(COc2ccc(-c3ccn[nH]3)nc2)c1 [Example 45-4] | 6400 | 86 |  | 
21 | O=C(O)C1CC(c2cccc(CCOc3ccc(-c4ccn[nH]4)nc3)c2)C1 (centres unmarked) [Example 71-19] | 540 | 53 |  | 
22 | CN(CCC(=O)O)C(=O)c1cccc(COc2ccc(-c3ccn[nH]3)nc2)c1 [Example 45-2] | 3200 | 150 |  | 

Row | Structure (SMILES) | IC50 (human CYP4F2; [1]) [nM] | IC50 (human CYP4A11; [2]) [nM] | IC50 (human CYP4F2; [3]) [nM] | IC50 (human CYP4A11; [4]) [nM]
23 | O=C(O)[C@H]1C[C@](O)(c2cccc(COc3ccc(-c4ccn[nH]4)nc3)c2)C1 [Example 28-1, 3-Hydroxy-3-[3-[[6-(1-H-pyrazol-5-yl)-3-pyridinyl]oxymethyl]phenyl]-1-cyclobutanecarboxylic Acid] |  |  | 470 | 61
24 | O=C(O)C1(c2cccc(COc3ccc(-c4ccn[nH]4)nc3)c2)CC1 [Example 21-3] |  |  | 21000 | 16
25 | O=C(CCc1cccc(COc2cnc(-c3ccn[nH]3)c(F)c2)c1)NCCO [Example 42-18] | 21 | 58 |  | 
26 | O=C(O)C1CC1c1ccc(F)c(CCOc2ccc(-c3ccn[nH]3)nc2)c1 (single isomer, unassigned) [Example 74-8] | 410 | 77 |  | 
27 | O=C(O)CC1CCCCN1C(=O)c1cccc(COc2ccc(-c3ccn[nH]3)nc2)c1 (centres unmarked) [Example 45-32] | 6800 | 660 |  | 
28 | CC(=O)N1CCC(CCCCCCCOc2ccc(-c3ccn[nH]3)nc2)(C(=O)O)CC1 [Example 3-8] |  |  | 250 | 1200
29 | CC(C)(Oc1cc(CCCOc2ccc(-c3ccn[nH]3)nc2)ccn1)C(=O)O [Example 71-42] | 2100 | 630 |  | 
30 | Oc1cc(COc2ccc(-c3ccn[nH]3)nc2)ccc1F [Example 12-2] |  |  | 11 | 310
31 | CN(CC12CC(COc3ccc(-c4ccn[nH]4)nc3)(C1)C2)S(C)(=O)=O [Example 58-2, N-Methyl-N-[[3-[[6-(1H-pyrazol-5-yl)-3-pyridinyl]oxymethyl]-1-bicyclo[1.1.1]pentanyl]methyl]methanesulfonamide] |  |  | 5.1 | 240
32 | O=C(O)C1COc2c(CCOc3ccc(-c4ccn[nH]4)nc3)cccc2C1 (centres unmarked) [Example 71-12] | 1300 | 18 |  | 
33 | O=C(O)C1(OCCOCCCCOc2ccc(-c3ccn[nH]3)nc2)CCCC1 [Example 2-4] |  |  | 1800 | 200
34 | O=C(O)C1CC1c1ccc(COc2ccc(-c3ccn[nH]3)nc2)cc1 (centres unmarked) [Example 71-15] | 1200 | 84 |  | 
35 | O=C(O)C1CCCC(CCCOc2ccc(-c3ccn[nH]3)nc2)C1 (centres unmarked) [Example 1-29] |  |  | 360 | 30
36 | O=C(O)c1ccnc(-c2cccc(COc3ccc(-c4ccn[nH]4)nc3)c2)n1 [Example 22-6] |  |  | 3100 | 110
37 | CC(C)(CCCCCCCCOc1ccc(-c2ccn[nH]2)nc1)C(=O)O [Example 1-63] |  |  | 8.9 | 36
38 | Oc1cc(CCCCOc2ccc(-c3ccn[nH]3)nc2)on1 [Example 64-1, 5-[4-[[6-(1H-Pyrazol-5-yl)-3-pyridinyl]oxy]butyl]-3-isoxazole] |  |  | 780 | 41
39 | CN(CCCCCCOc1ccc(-c2ccn[nH]2)nc1)C(=O)C1(C(=O)O)CCCC1 [Example 3-10] |  |  | 250 | 92
40 | CN(CCO)C(=O)CCc1cccc(COc2ccc(-c3ccn[nH]3)nc2)c1 [Example 43-3] | 170 | 310 |  | 
41 | O=C(O)Cn1ccc(-c2cccc(COc3ccc(-c4ccn[nH]4)nc3)c2)cc1=O [Example 1-58] |  |  | 650 | 86
42 | CC(C)(Oc1cccc(CCCCOc2ccc(-c3ccn[nH]3)nc2)c1)C(=O)O [Example 1-36] |  |  | 1300 | 110
43 | CC(C)(COc1cccc(CCCOc2ccc(-c3ccn[nH]3)nc2)n1)C(=O)O [Example 71-41] | 660 | 160 |  | 
